Experimental data: US20200054646A1, “USE OF PHENOTHIAZINE DERIVATIVE IN THE TREATMENT OF INFECTIOUS PURPURA OR PURPURA FULMINANS” (priority 2016, published 2020)

Tests used:
[1] = system: HDMECs colonized by N. meningitidis; assay: Basement membrane remodelling: Gelatin-FITC matrix degradation by infected HDMEC; type: cell-based, human; details: infected cells, 150 μg/ml Gentamicin alone, 24 h post-infection
Procedure: (A) Experimental procedure: HDMECs grown on a fluorescent matrix (Gelatin-Fitc) were colonized by N. meningitidis for 6 h. They were then treated with 150 μg/ml gentamicin for 1 h, then 15 min with Trifluoperazine (50 μM) (or solvent alone as control) and incubated for further 15 h in the presence of 150 μg/ml gentamicin. (B) Fluorescence microscopy was used to visualize cells stained with labelled phalloidin and the fluorescent matrix. The presence of dark zones corresponds to zones of matrix degradation. (C) Quantification of the percentage of matrix degradation, using Image J software.
Plastic coverslips (13 mm diameter) (Nalgen #174950) were washed in ethanol 70%, dried then coated with poly-L-lysine 1 mg/ml for 20 min at room temperature. After one wash in sterile PBS, 0.5% Glutaraldehyde was added for 15 min at room temperature. After three washes in PBS, Gelatin-FITC (0.2 mg/ml Invitrogen #G13187) was added for 10 minutes at room temperature in the dark. Coverslip were then washed with sterile PBS and treated with 5 mg/ml sodium borohydride for 3 min. After three washes in sterile PBS, 10^5 HDMECs (PromoCell #C-12210) were seeded per well in their PromoCell culture medium and incubated overnight at 37° C. 5% CO2. The day after, cells were infected with Neisseria meningitidis Nm2C4.3, as above described. […] Quantifications were performed using ImageJ software (NIH).

[2] = system: meningococcal colonization of the human dermal vasculature; assay: In vivo infection of mice engrafted with human skin
[3] = system: Enteropathogenic Escherichia Coli (EPEC escN mutant, GFP) microcolonies on HBMEC; assay: Dispersion of EPEC microcolonies at the surface of human endothelial cells; type: cell-based; details: 10 to 50 μM, 30 min, dose-dependent
Procedure: Human bone marrow microvascular endothelial cells (HBMEC) were infected with a GFP-expressing mutant Enteropathogenic Escherichia Coli, which lacks the ATPase escN (EPEC […]escN-GFP) for 2 h, then treated with Trifluoperazine (10-50 μM) for 30 minutes, before fixation and immunofluorescence analysis using Alexa Fluor 633 Phalloidin. (A) Representative fluorescence microscopy showing bacterial colony (white dots) formed at the surface of the endothelial cells. (B) Quantification of the bacterial colonization was performed using Image J software.
HBMEC were grown on Thermanox coverslips coated with gelatin 2% for 2 days to reach confluency. Cells were then infected for 1 h with a GFP-expressing mutant Enteropathogenic Escherichia Coli (EPEC), which lacks the ATPase escN. This strain is unable to translocate effector proteins and is more prone to form pilus-dependent microcolony at the host cell surface (Jensen et al., 2015). Cells were then washed three times with medium to remove non-adherent bacteria and infection was pursued for 1 extra hour, to allow bacterial growth at the endothelial cell surface to form microcolonies. Trifluoperazine was then added to obtain final concentrations of 10, 20, 30 and 50 μM. After incubation for 30 minutes, cells were washed and fixed in 4% Paraformaldehyde for 10 min, washed three times with PBS. […] Quantification was done with ImageJ software (NIH). […]

[4] = system: meningococcal colonization of human brain vessels; parameters: species or system Neisseria meningitidis; details: 40 μM for 30 min
Source text: Fresh human brain sections were obtained from frontal lobe specimens of macroscopically and histologically normal brain (confirmed by a neuropathologist) of individuals referred to the Department of Forensic Medicine for unexplained out-of-hospital sudden death (consent forms ML1094, PFS 10-008, ClinicalTrials.gov NCT00320099 from The Institutional Review Boards of the Poincare Hospital, Versailles-Saint Quentin University and the French “Agence de la Biomédecine”). After freezing of the brain tissue with isopentane cooled in liquid nitrogen, the sections, 7 μm thick, containing leptomeninges, cortical ribbon and the underlying white matter were immobilised on Superfrost™ plus microscope slides and stored at −80° C. […] Adherent meningococci were detected by immunofluorescence analysis: brain sections were incubated with the following primary antibodies for 2 h in PBS/BSA 0.1%: monoclonal anti-human CD31/PECAM-1 mouse monoclonal antibody (clone HEC7, ABCAM, ab119339) and a rabbit polyclonal serum anti-Nm 2C4.3 strain (1:3000). […] Entire samples were scanned using a Lamina (Perkin Helmer) and were further analysed using confocal microscopy (spinning disk Leica, 63×). Quantification analysis of the images (n=50 per section) was performed using ImageJ software (NIH). […]

[5] = system: Nm2C4.3 adhesion to human dermal microvascular endothelial cells (HDMECs); assay: Meningococcal adhesion to endothelial cells after pretreatment of bacteria; type: cell-based, Neisseria meningitidis; details: bacteria pre-treated with 30 μM for 30 minutes
Procedure: Nm2C4.3 grown in suspension were pretreated in the absence or in the presence of 30 μM Trifluoperazine for 30 minutes before adhesion to human dermal microvascular endothelial cells (HDMECs) for 30 minutes. Infection was allowed to proceed for further 30, 60 or 90 minutes before fixation and immunostaining using anti-Nm2C4.3 antibody and Alexa Fluor 633 Phalloidin. (A) Representative fluorescence microscopy showing bacterial colony (white dots) formed at the surface of the endothelial cells. (B) Quantification of the bacterial colonization was performed using Image J software.

[6] = system: Nm2C4.3 microcolonies on HCMEC/D3; type: cell-based, Neisseria meningitidis
Procedure: HCMEC/D3, a well-established human brain endothelial cell line (Weksler et at, 2013) was grown in EBM-2 basal medium (Lonza, Walkersville, Md., USA) supplemented with 5% Fetal Bovine Serum “Gold”, 10 mM HEPES (PAA Laboratories GmbH, Pasching, Austria), 1% Penicillin-Streptomycin, 1% chemically defined lipid concentrate (Invitrogen Ltd, Paisley, UK), 1.4 μM hydrocortisone, 5 μg·ml^−1 ascorbic acid and 1ng·ml^−1 bFGF (Sigma-Aldrich, St. Louis, Mo.). Cells were grown on Thermanox coverslips coated with rat collagen I for 4 days at 37° C. in a humidified incubator in 5% CO2. Cells were then infected with a suspension of Nm2C4.3 (˜10^7 CFU/ml) in EBM2/FBS during 30 minutes to allow bacterial adhesion. Cells were then washed three times with medium to remove non-adherent bacteria and infection was pursued for 1 h 30: adherent bacteria grew at the endothelial cell surface and formed micro-colonies. Trifluoperazine was then added to obtain final concentrations of 10, 20, 30 and 40 μM. After incubation for 30 minutes, cells were washed and fixed in 4% Paraformaldehyde for 10 min, washed three times with PBS, and permeabilized with 0.1% Triton X-100 in PBS for 10 min. […] Quantification was done with ImageJ software (NIH). […]

SMILES	degradation of the basement membrane [1]	colonization of the human dermal vasculature ([2]; mice engrafted with human skin)	incidence of vascular alteration ([2]; mice engrafted with human skin)	signs of intravascular coagulation ([2]; mice engrafted with human skin)	hallmark of vascular inflammation ([2]; trifluoperazine alone or in combination with cefotaxime)	dispersion of EPEC microcolonies [3]	reduction of vascular colonization of the human brain vessels [4]	adhesion / colony formation at the endothelial cell surface by pre-treated bacteria [5]	concentration range of dose-dependent microcolony dispersion ([6]; 30 min, HCMEC/D3)	dispersion of microcolonies on human brain endothelial cells ([6]; treatment for 30 min)
CN[C@@H]1[C@@H](O)C(O[C@@H]2[C@@H](O)[C@H](O[C@H]3O[C@H]([C@@H](C)NC)CC[C@H]3N)[C@@H](N)C[C@H]2N)OC[C@]1(C)O (stereo partly drawn) [Gentamicin, (3R,4R,5R)-2-{[(1S,2S,3R,4S,6R)-4,6-diamino-3-{[(2R,3R,6S)-3-amino-6-[(1R)-1-(methylamino)ethyl]oxan-2-yl]oxy}-2-hydroxycyclohexyl]oxy}-5-methyl-4-(methylamino)oxane-3,5-diol]	about 20%	–	–	–	–	–	–	–	–	–
CN1CCN(CCCN2c3ccccc3Sc3ccc(C(F)(F)F)cc32)CC1 [Trifluoperazine]	–	prevents the massive colonization	reduces incidence of vascular alteration	reduces the signs of intravascular coagulation	drastically reduced	induced the dispersion	80%	did no longer adhere	10 to 40 µM	induced their dispersion
